Measured values as given in PubChem BioAssay (NCI).
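Five concentrations, 48 hours, 96-well plates. TGI marks complete inhibition of growth.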

Experiments:
Experiment in all cases: NCI-60 cell line screen, 48 h
SR leukemia = tested on: SR leukemia
HCC-2998 colon = tested on: HCC-2998 colon
DU-145 prostate = tested on: DU-145 prostate
NCI-H522 lung = tested on: NCI-H522 lung
KM12 colon = tested on: KM12 colon
A498 renal = tested on: A498 renal
K-562 leukemia = tested on: K-562 leukemia
MOLT-4 leukemia = tested on: MOLT-4 leukemia
UO-31 renal = tested on: UO-31 renal
RPMI-8226 leukemia = tested on: RPMI-8226 leukemia
PC-3 prostate = tested on: PC-3 prostate
BT-549 breast = tested on: BT-549 breast
SF-268 CNS = tested on: SF-268 CNS
SF-295 CNS = tested on: SF-295 CNS
SF-539 CNS = tested on: SF-539 CNS
T-47D breast = tested on: T-47D breast
COLO 205 colon = tested on: COLO 205 colon
HOP-92 NSCLC = tested on: HOP-92 NSCLC
TK-10 renal = tested on: TK-10 renal
A549 NSCLC = tested on: A549 NSCLC

Structure (SMILES)	TGI (SR leukemia) [µM]	TGI (HCC-2998 colon) [µM]	TGI (DU-145 prostate) [µM]	TGI (NCI-H522 lung) [µM]	TGI (KM12 colon) [µM]	TGI (A498 renal) [µM]	TGI (K-562 leukemia) [µM]	TGI (MOLT-4 leukemia) [µM]	TGI (UO-31 renal) [µM]	TGI (RPMI-8226 leukemia) [µM]	TGI (PC-3 prostate) [µM]	TGI (BT-549 breast) [µM]	TGI (SF-268 CNS) [µM]	TGI (SF-295 CNS) [µM]	TGI (SF-539 CNS) [µM]	TGI (T-47D breast) [µM]	TGI (COLO 205 colon) [µM]	TGI (HOP-92 NSCLC) [µM]	TGI (TK-10 renal) [µM]	TGI (A549 NSCLC) [µM]
Nc1ccc(OCCCc2c(-c3ccccc3)nc(N)[nH]c2=O)cc1	> 100	> 100	> 100	> 100	> 100	> 100	> 100	> 100	> 100	> 100	> 100	> 100	> 100	> 100	> 100	81.2	> 100			
CC#CCCCC1(C)CCCNC1=S (centres undefined)	> 10		> 10	> 10	> 10		> 10	> 10	> 10		> 10	> 10	> 10	> 10	> 10	> 10		> 10	> 10	> 10
CC(=O)OC(=C(C#N)C#N)c1nccnc1C(C)=O	> 20	> 20	> 20	> 20	14	> 20	> 20	> 20	> 20		> 20	> 20	7.67	> 20	> 20	> 20	11.5	> 20		> 20
O=P1(Oc2ccccc2)NCc2ncccc2O1 (centres undefined)	> 100	> 100	> 100		> 100	> 100	> 100	> 100	> 100	> 100	> 100	> 100		> 100	> 100	> 100	> 100	> 100		> 100
CCOP(C)(=O)/C(Cc1ccc(OC)c(OC)c1)=N\O (centres undefined)	> 100	> 100	> 100	> 100	> 100	> 100	> 100	> 100	> 100	> 100	> 100	> 100		> 100	> 100	> 100	> 100	> 100	> 100	> 100
Cc1nc2ccccc2c(=O)n1/N=C/c1ccc(N(C)C)cc1	> 100	> 100	> 100	> 100	> 100	> 100		> 100		> 100	> 100	> 100	> 100	> 100	> 100	> 100	> 100	> 100	> 100	> 100
CC(=O)OCCOCCN1CCN(c2c(O)c3c(c(O)c2Cl)C(=O)C=CC3=O)CC1	4.54	4.31	3.29	0.583	4.92	3.56		2.51	2.47	1.42	3.28	2.21	3.62	3.72	3.37	2.77	0.68	0.822	1.62	3.94
